Columns and labels:
[1] = system: coronary-perfused canine right (RV) and left (LV) ventricular wedge models of JWS; test: Coronary-perfused ventricular wedge models of the J wave syndromes (NS5806 alone or with verapamil); parameters: QT interval / T wave amplitude / Epi (APD50) / Epi (APD90): unit not given here
Method: Ten hearts from purpose-bred adult male mongrel dogs (20-22 kg) were acquired from Covance (Denver, PA) and another 10 hearts from purpose-bred adult male Beagle dogs (10-16 kg) were obtained from Envigo (Denver, PA). Dogs were sedated with ketamine (10 mg/kg, IM) and xylazine 2 (mg/kg, IM). Prior to euthanasia (Euthasol solution: pentobarbital sodium and phenytoin sodium; 0.22 ml/kg, IV), and heparin (human pharmaceutical grade, 1,000 U/kg, IV) were administered 3-4 min before isolation of the hearts via a left thoracotomy. Retrograde aortic perfusion of the hearts with ice-cold cardioplegic solution (modified K-H solution; 16 mM KCl) was immediately performed to rinse the coronary vasculature of blood. The hearts were then placed in a sealed container containing ice-cold cardioplegic solution and transported to our institution via private courier in an insulated package filled with icepacks.
Transmural wedges were dissected from the base of the RV and LV. During the cannulation procedure, preparations were initially arterially perfused with cardioplegic solution. Next, the wedge preparations were placed in a tissue bath and perfused with a modified Krebs-Henseleit solution (K—H) bubbled with 95% O2/5% CO2 warmed to 37° C. The composition of K—H was (in mM): 118 NaCl, 4 KCl, 2 CaCl2, 1.2 MgSO4, 24 NaHCO3, 1.2 NaH2PO4, 2 Na Pyruvate and 10 D-Glucose. The perfusate was delivered at a constant pressure (45-50 mmHg). A transmural pseudo-ECG (ECG) was recorded using two Ag/AgCl half cells placed at ˜1 cm from the Epi (+) and Endo (−) surfaces along the same axis as the transmembrane action potential (AP) recordings. APs were simultaneously recorded from the immediate sub-Epi and M cell region (˜2-3 mm from the Endo surface) using floating glass microelectrodes. Pacing was applied to the Endo surface using bipolar silver electrodes insulated except at the tips (Basic Cycle Lengths [BCLs]: 500-2,000 ms). A detailed description of the arterially-perfused ventricular wedge preparation has been previously published.^5 ECG and AP signals were digitized and analyzed using Spike 2 for Windows (Cambridge Electronic Design, Cambridge, UK).
We used the Ito-agonist NS5806 (5-10 μM) alone or with the calcium-channel blocker verapamil (2.5 μM) to pharmacologically mimic the effects of the ion channel genetic defects underlying ERS and BrS. These provocative agents were added to the coronary perfusate in increasing concentrations until the characteristic ECG phenotypes were unmasked, including phase 2 reentry (P2R), closely coupled premature beats (CCPBs) and/or pVT/VF. AR-787 was added to the perfusate to test its ability to suppress or prevent arrhythmogenesis.

[2] = high doses / high plasma levels; cited from earlier work
[3] = NS5806 5-10 μM, 3 LV wedges, BCL 800 msec

| Compound | QT interval ([1]; AR-787 1, 10 or 50 μM, NS5806 5-10 μM, five wedges) | effect on phase 1 magnitude, AP notch and J wave ([1]; NS5806 5-10 μM in coronary perfusate) | Epi (APD50) [1, 3] | Epi (APD90) [1, 3] | J wave amplitude [1, 3] | M (APD50) [1, 3] | M (APD90) [1, 3] | Ph1 mag (% Ph0) [1, 3] | QT interval [1, 3] | T wave amplitude [1, 3] | patients developing serious GI side effects [2] |
| --- | --- | --- | --- | --- | --- | --- | --- | --- | --- | --- | --- |
| O=C(Nc1cc(C(F)(F)F)cc(C(F)(F)F)c1)Nc1c(Br)cc(Br)cc1-c1nn[nH]n1 [NS5806, reference compound] | unaffected | increased the magnitude of phase 1 | 181.8 ± 10.4 | 215.6 ± 5.3 | 31.3 ± 4.6 | 179.5 ± 5.9 | 228.4 ± 7.7 | 40.2 ± 6.5 % Ph0 | 261.2 ± 4.5 | 17.8 ± 9.6 |  |
| C=C[C@H]1C[N@@]2CC[C@H]1C[C@@H]2[C@@H](O)c1ccnc2ccc(OC)cc12 [quinidine] |  |  |  |  |  |  |  |  |  |  | approximately 50% |

From patent US20250228824A1, “COMPOSITIONS AND METHODS FOR INHIBITION OF ITO AS TREATMENT FOR THE J WAVE SYNDROMES AND HYPOTHERMIA” (Lankenau Institute for Medical Research, priority 2021, published 2025)
